Measured values published in ChEMBL document CHEMBL1201862, “PubChem BioAssay data set” (2004).
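Grown in 96-well plates, cells were treated for 48 hours with each compound at five concentrations. Insufficient inhibition: endpoint recorded as highest concentration tested. Abbreviation: GI50, concentration required for 50% inhibition of growth.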 Calls of active or inactive are those of the source. No stated cut-off is given here; in the data, active = GI50 up to about 1.1 µM and inactive = higher.

Tests used:
Assay in all cases: NCI tumour cell line growth inhibition, 48 h
LOX IMVI = tested on: LOX IMVI
HT-29 = tested on: HT-29
HL-60 = tested on: HL-60
UO-31 = tested on: UO-31
HOP-92 = tested on: HOP-92
SN12C = tested on: SN12C
NCI-H522 = tested on: NCI-H522
T47D = tested on: T47D
SK-MEL-5 = tested on: SK-MEL-5
K562 = tested on: K562
OVCAR-5 = tested on: OVCAR-5
786-0 = tested on: 786-0
M14 = tested on: M14
UACC-62 = tested on: UACC-62
NCI-H226 = tested on: NCI-H226
U-251 = tested on: U-251
SNB-75 = tested on: SNB-75
PC-3 = tested on: PC-3
Malme-3M = tested on: Malme-3M
COLO 205 = tested on: COLO 205
OVCAR-8 = tested on: OVCAR-8
SR = tested on: SR
MDA-MB-435 = tested on: MDA-MB-435
RPMI-8226 = tested on: RPMI-8226
SF-295 = tested on: SF-295
MDA-N = tested on: MDA-N
SF-268 = tested on: SF-268
Hs-578T = tested on: Hs-578T
CAKI-1 = tested on: CAKI-1
ACHN = tested on: ACHN
MDA-MB-231 = tested on: MDA-MB-231
SNB-19 = tested on: SNB-19
HCT-116 = tested on: HCT-116
SK-MEL-2 = tested on: SK-MEL-2
SK-OV-3 = tested on: SK-OV-3
BT-549 = tested on: BT-549
TK-10 = tested on: TK-10
IGROV-1 = tested on: IGROV-1
DU-145 = tested on: DU-145
NCI-H23 = tested on: NCI-H23
OVCAR-3 = tested on: OVCAR-3
A498 = tested on: A498
NCI/ADR-RES = tested on: NCI/ADR-RES
MCF7 = tested on: MCF7
EKVX = tested on: EKVX
SF-539 = tested on: SF-539
OVCAR-4 = tested on: OVCAR-4
KM12 = tested on: KM12
MOLT-4 = tested on: MOLT-4
HOP-62 = tested on: HOP-62
CCRF-CEM = tested on: CCRF-CEM
SK-MEL-28 = tested on: SK-MEL-28
NCI-H460 = tested on: NCI-H460
SW-620 = tested on: SW-620
HCC 2998 = tested on: HCC 2998
HCT-15 = tested on: HCT-15
A549 = tested on: A549
RXF 393 = tested on: RXF 393
UACC-257 = tested on: UACC-257

`CCN(CC)CCCNc1nncc2c(C)c3[nH]c4ccc(OC)cc4c3cc12` was tested, and the GI50 (LOX IMVI) was 189 nM (active), the GI50 (HT-29) was 504 nM (active) and the GI50 (HL-60) was 910 nM (active). For the same compound, the GI50 (UO-31) was 3170 nM (inactive), the GI50 (HOP-92) was 369 nM (active) and the GI50 (SN12C) was 271 nM (active). The GI50 (NCI-H522) was 25.6 nM (active), the GI50 (T47D) was 286 nM (active) and the GI50 (SK-MEL-5) was 935 nM (active). For the same compound, the GI50 (K562) was 140 nM (active), the GI50 (OVCAR-5) was 1250 nM (inactive) and the GI50 (786-0) was 222 nM (active). For the same compound, the GI50 (M14) was 1610 nM (inactive), the GI50 (UACC-62) was 1290 nM (inactive) and the GI50 (NCI-H226) was 55.7 nM (active). For the same compound, the GI50 (U-251) was 304 nM (active), the GI50 (SNB-75) was 640 nM (active) and the GI50 (PC-3) was 358 nM (active). The GI50 (Malme-3M) was 916 nM (active), the GI50 (COLO 205) was 1030 nM (active) and the GI50 (OVCAR-8) was 182 nM (active). For the same compound, the GI50 (SR) was 414 nM (active), the GI50 (MDA-MB-435) was 1110 nM (active) and the GI50 (RPMI-8226) was 724 nM (active). The GI50 (SF-295) was 1550 nM (inactive), the GI50 (MDA-N) was 695 nM (active) and the GI50 (SF-268) was 706 nM (active). The GI50 (Hs-578T) was 482 nM (active), the GI50 (CAKI-1) was 8410 nM (inactive) and the GI50 (ACHN) was 1080 nM (active). For the same compound, the GI50 (MDA-MB-231) was 716 nM (active), the GI50 (SNB-19) was 318 nM (active) and the GI50 (HCT-116) was 277 nM (active). For the same compound, the GI50 (SK-MEL-2) was 1020 nM (active), the GI50 (SK-OV-3) was 1170 nM (inactive) and the GI50 (BT-549) was 1540 nM (inactive). The GI50 (TK-10) was 2820 nM (inactive), the GI50 (IGROV-1) was 356 nM (active) and the GI50 (DU-145) was 622 nM (active). For the same compound, the GI50 (NCI-H23) was 421 nM (active), the GI50 (OVCAR-3) was 604 nM (active) and the GI50 (A498) was 1750 nM (inactive). For the same compound, the GI50 (NCI/ADR-RES) was 38800 nM (inactive), the GI50 (MCF7) was 97.5 nM (active) and the GI50 (EKVX) was 2110 nM (inactive). For the same compound, the GI50 (SF-539) was 268 nM (active), the GI50 (OVCAR-4) was 618 nM (active) and the GI50 (KM12) was 592 nM (active). For the same compound, the GI50 (MOLT-4) was 17.3 nM (active), the GI50 (HOP-62) was 525 nM (active) and the GI50 (CCRF-CEM) was 53.5 nM (active). The GI50 (SK-MEL-28) was 766 nM (active), the GI50 (NCI-H460) was 789 nM (active) and the GI50 (SW-620) was 184 nM (active). For the same compound, the GI50 (HCC 2998) was 650 nM (active), the GI50 (HCT-15) was 10300 nM and the GI50 (A549) was 718 nM (active). The GI50 (RXF 393) was 1320 nM (inactive) and the GI50 (UACC-257) was 2350 nM (inactive).
